Assay results published in patent publication US5563128A, “Phosphonate derivatives of lipophilic amines” (Rhone-Poulenc Rorer Pharmaceuticals Inc., priority 1995, dated 1996).

Biological target: T1, squalene synthase (Rattus norvegicus, UniProt Q02769)
T1 construct: Microsomes are prepared by centrifugation (100,000 g) and then resuspended in the assay buffer; from tissue; host or cells: liver microsomes of male Sprague-Dawley rats (animals from Taconic Farms, Germantown, N.Y.)
T1 sequence (Q02769 1-416): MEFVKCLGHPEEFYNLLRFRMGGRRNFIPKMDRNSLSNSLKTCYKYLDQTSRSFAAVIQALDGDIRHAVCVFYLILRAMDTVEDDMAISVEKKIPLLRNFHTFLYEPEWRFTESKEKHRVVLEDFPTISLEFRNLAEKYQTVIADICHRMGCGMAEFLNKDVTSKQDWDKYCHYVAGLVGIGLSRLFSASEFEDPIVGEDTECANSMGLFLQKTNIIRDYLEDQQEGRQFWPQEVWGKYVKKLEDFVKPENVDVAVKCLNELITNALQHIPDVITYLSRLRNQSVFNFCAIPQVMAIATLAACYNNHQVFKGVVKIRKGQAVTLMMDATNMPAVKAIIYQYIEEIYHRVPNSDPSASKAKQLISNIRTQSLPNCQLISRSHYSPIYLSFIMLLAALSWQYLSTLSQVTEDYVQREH
Experiment: Squalene Synthase Inhibition Assay (rat liver microsomes, [3H]FPP)
Assay type: biochemical, rat (male Sprague-Dawley)
Conditions: for IC50: 50 mM, pH 7.4
Experimental: Squalene Synthase Inhibition Assay
I. Preparation of Assay Substances:
Test solutions are prepared fresh in 100% DMSO or dH2 O. Subsequent dilutions are made in the same solvent. Compounds are tested initially at 1 μM (final concentrations).
Potassium Phosphate (50 mM,) pH 7.4, and HEPES (4-(2-hydroxyethyl)-1-piperazineethanesulfonic acid, 50 mM) pH 7.4 stock buffers are prepared and stored at 4° C. until use.
C) Microsomal Enzyme Preparation:
Fresh livers from male Sprague-Dawley rats (Taconic Farms, Germantown, N.Y.) weighing 150-200 g are collected after exsanguination. All subsequent procedures are performed at 4° C. The liver is homogenized in the assay buffer (50 mM, pH 7.4). Cellular fractions are separated as described by Popjak, G. in "Enzymes of sterol biosynthesis in liver and intermediates of sterol biosynthesis," Meth. Enzymol. […] Microsomes are prepared by centrifugation (100,000 g) and then resuspended in the assay buffer. Microsomes are rehomogenized with a motor-driven Teflon pestle to yield a uniform suspension (~30 mg protein/ml), aliquoted, and stored at -80° C. until use.
II. Squalene Synthase Assay
The procedure is a modification of those described by Popjack (ibid) and Poulter et al. in "Squalene synthase. Inhibition by ammonium analogues of carbocationic intermediates in the conversion of presqualene diphosphate to squalene" J. Am. Chem. Soc. […] All components except [^3 H]FPP are preincubated for 10 min. at 37° C. The reaction is initiated by the addition of [^3 H]FPP. […] The tubes are incubated at 65° C. for 30 min. to solubilize proteins. The mixture is extracted with 5 ml petroleum ether for 10 min. After freezing the lower aqueous phase, the organic phase is transferred to glass tubes containing 2 ml distilled water. After washing the lower aqueous phase is frozen and the petroleum ether phase is removed and counted with 10 ml Ready Safe liquid scintillation cocktail using a Beckman LS-9000 scintillation counter. DPM values are adjusted against a blank (no enzyme).
The difference in radioactivity in the presence and absence of the test compound is used to determine the level of inhibition. […] Tallarida, R. J. and Murray, R. B. Manual of pharmacologic calculations with computer programs.

| SMILES | inhibition at 5 µM (Phosphate buffer, @ 5 μM) [%] | IC50 (HEPES buffer) [µM] | inhibition at 10 µM (Phosphate buffer) [%] | inhibition at 10 µM (HEPES buffer) [%] |
| --- | --- | --- | --- | --- |
| CCOP(=O)(OCC)C(CCN[C@@H]1CCCC[C@H]1OCc1ccc(-c2nc3ccccc3o2)cc1)P(=O)(OCC)OCC (relative stereo) |  |  |  | 14 |
| COP(=O)(O)C(CCN[C@@H]1CC=CC[C@H]1c1ccc(/C=C/c2ccccc2)cc1)P(=O)(O)OC (relative stereo) |  |  |  | 69 |

Second part, led by results:

| inhibition at 5 µM (Phosphate buffer, @ 5 μM) [%] | IC50 (HEPES buffer) [µM] | inhibition at 10 µM (Phosphate buffer) [%] | SMILES | inhibition at 10 µM (HEPES buffer) [%] |
| --- | --- | --- | --- | --- |
| 61 |  |  | O=P(O)(O)CCCN[C@@H]1CC=CC[C@H]1c1ccc(/C=C/c2ccccc2)cc1 (relative stereo) | -2 |
|  | 0.013 |  | O=P(O)(O)C(CCN[C@@H]1CCCC[C@H]1OCc1ccc(-c2nc3ccccc3o2)cc1)P(=O)(O)O (relative stereo) |  |
|  | 17 | 35 | O=P(O)(O)CCCN1CCC=C(c2ccc(-c3nc4ccccc4o3)cc2)C1 |  |
